Test results: ChEMBL document CHEMBL1134128, “Rational design of a new series of pronucleotide” (Bioorg Med Chem Lett, 2001)

Key:
CEM-SS [1] = experiment: Cytotoxic concentration to inhibit HIV replication in TK CEM-SS cell line and the value is represented as CC50; type: functional; details: Homo sapiens
[2] = Half life in culture medium containing 10% of heat inactivated foetal calf serum; type: ADME, cell-free, Bos taurus; details: cattle
[3] = Partition coefficient (logP); type: physicochemical; details: octanol/water
[4] = Half life were determined in CEM-SS cell extract in decomposition step 1; type: ADME; details: human
[5] = Half life in human serum; type: ADME, cell-free
[6] = The pKa value was reported; type: physicochemical
CEM-SS [7] = experiment: Effective concentration to inhibit HIV replication in TK CEM-SS cell line and the value is represented as EC50; type: functional, cell-based; details: Homo sapiens
CEM-SS [8] = experiment: Effective concentration to inhibit HIV replication in TK CEM-SS cell line; type: functional, cell-based; details: Homo sapiens
CEM-SS [9] = experiment: Cytotoxic concentration to inhibit HIV replication in TK CEM-SS cell line; type: functional; details: Homo sapiens

| Compound | CC50 (CEM-SS [1]) [µM] | half-life [2] [h] | logP [3] | half-life [4] [h] | half-life [5] [h] | pKa [6] | EC50 (CEM-SS [7]) [µM] | EC50 (CEM-SS [8]) [µM] | CC50 (CEM-SS [9]) [µM] |
| --- | --- | --- | --- | --- | --- | --- | --- | --- | --- |
| Cc1cn(C2CC(N=[N+]=[N-])C(COP(=O)(NC(C)(C)C)OCCSC(=O)C(C)(C)C)O2)c(=O)[nH]c1=O (centres undefined) | > 100 | 350 | 2.45 | 1.2 | 23 | 10.4 | 1.5 |  |  |
| Cc1cn(C2CC(N=[N+]=[N-])C(COP(=O)(NC(C)C)OCCSC(=O)C(C)(C)C)O2)c(=O)[nH]c1=O (centres undefined) |  | 200 | 1.91 | 1.2 | 10 | 10.6 |  | 0.63 | > 100 |
| Cc1cn(C2CC(N=[N+]=[N-])C(COP(=O)(O)N3CCOCC3)O2)c(=O)[nH]c1=O (centres undefined) | > 100 | 385 | 1.86 | 2.1 | 23 | 8.36 | 2 |  |  |
| CCCCN(CCCC)P(=O)(O)OCC1OC(n2cc(C)c(=O)[nH]c2=O)CC1N=[N+]=[N-] (centres undefined) | > 10 | 136 | 4 | 0.96 | 23 | 11.2 | > 10 |  |  |
| Cc1cn(C2CC(N=[N+]=[N-])C(COP(=O)(O)N3CCCCC3)O2)c(=O)[nH]c1=O (centres undefined) | > 100 |  | 2.77 | 1.2 |  | 11.1 | 5.2 |  |  |
| CCCCNP(=O)(O)OCC1OC(n2cc(C)c(=O)[nH]c2=O)CC1N=[N+]=[N-] (centres undefined) | > 100 | 165 | 2.67 | 1.3 | 29 | 10.6 | 1.2 |  |  |
| Cc1cn(C2CC(N=[N+]=[N-])C(COP(=O)(Nc3ccccc3)OCCSC(=O)C(C)(C)C)O2)c(=O)[nH]c1=O (centres undefined) | > 10 | 100 | 2.55 | 1.4 | 23 | 4.68 | > 10 |  |  |
| Cc1cn([C@H]2C[C@H](N=[N+]=[N-])[C@@H](CO)O2)c(=O)[nH]c1=O [ZIDOVUDINE] |  |  |  |  |  |  |  | > 100 | > 100 |
